Patent US20250304583A1, “INHIBITING G CYCLIC AMP-RESPONSIVE ELEMENT-BINDING PROTEIN (CREB) BINDING PROTEIN (CBP)” (FORMA Therapeutics, Inc., priority 2020, published 2025)
Structures can show the parent of a compound that is named as a salt.

Columns and labels:
[1] = Dynamic vapor sorption (hygroscopicity); format: physicochemical; details: relative humidity of up to 80%, dynamic vapor sorption isotherm
Text: Dynamic Vapor Sorption (DVS) data were collected with a SMS DVS Intrinsic from Surface Measurement Systems.

[2] = Solid form stability at temperature and relative humidity; format: physicochemical; details: temperatures up to 40° C. and relative humidity of up to 75%
[3] = tested on: panel of 10 BRD representing the various branches of the bromodomain tree; assay: AlphaScreen panel of 10 bromodomains; format: binding; details: number of bromodomains out of 10

Row | water uptake [1] | stability of solid form [2] | SMILES | activity against 10 bromodomains surveyed [3]
1 | 6.3% | stable for at least two weeks | COC(=O)N1c2ccc3c(nc([C@H](O)c4cc(F)ccc4OC)n3[C@@H]3CCC[C@@H](C(=O)O)C3)c2CC[C@@H]1C [HCl type A salt, (1R,3R)-3-((S)-2-((R)-(5-fluoro-2-methoxyphenyl)(hydroxy)methyl)-6-(methoxycarbonyl)-7-methyl-6,7,8,9-tetrahydro-3H-imidazo[4,5-f]quinolin-3-yl) cyclohexane-1-carboxylic acid] | –
2 | 2.1% | stable for at least two weeks | COC(=O)N1c2ccc3c(nc([C@H](O)c4cc(F)ccc4OC)n3[C@@H]3CCC[C@@H](C(=O)O)C3)c2CC[C@@H]1C [type B p-toluenesulfonic acid addition salt] [(1R,3R)-3-((S)-2-((R)-(5-fluoro-2-methoxyphenyl)(hydroxy)methyl)-6-(methoxycarbonyl)-7-methyl-6,7,8,9-tetrahydro-3H-imidazo[4,5-f]quinolin-3-yl) cyclohexane-1-carboxylic acid] | –
3 | – | – | COC(=O)N1c2ccc3c(nc([C@H](O)c4cc(F)ccc4OC)n3[C@@H]3CCC[C@@H](C(=O)O)C3)c2CC[C@@H]1C [Compound 1, (1R,3R)-3-[(7S)-2-[(R)-(5-fluoro-2-methoxyphenyl)(hydroxy)methyl]-6-(methoxycarbonyl)-7-methyl-3H,6H,7H,8H,9H-imidazo[4,5-f]quinolin-3-yl]cyclohexane-1-carboxylic acid] | inactive against 8
